Active and inactive are the calls of the source. The calls are words filed in the database; no cut-off is given here.
Columns and labels:
[1] = system: Mus musculus; assay: Inhibition of dextran sulfate sodium-induced weight loss in mouse at 150 mg/kg, ip administered daily for 10 days by macroscopic analysis; type: functional, organism-based; design: dose 150 mg/kg
[2] = system: Mus musculus; assay: Suppression of dextran sulfate sodium-induced colitis in mouse assessed as inhibition of leukocyte infiltration in colonic mucosa at 150 mg/kg, ip administered daily for 10 days by histological analysis; type: functional, organism-based; design: dose 150 mg/kg
[3] = system: Plasma; assay: Stability in rat plasma; type: ADME, cell-free
[4] = system: Plasma; assay: Stability in human plasma; type: ADME, cell-free
[5] = system: Mus musculus; assay: Suppression of dextran sulfate sodium-induced colitis in mouse assessed as decrease in disease activity index at 150 mg/kg, ip administered daily for 10 days by macroscopic analysis; type: functional, organism-based; design: dose 150 mg/kg
[6] = Cmax in mouse plasma at 100 mg/kg, ip; type: ADME, organism-based; design: dose 100 mg/kg, route intraperitoneal
[7] = system: Mus musculus; assay: Protection against dextran sulfate sodium-induced crypt damage in mouse at 150 mg/kg, ip administered daily for 10 days by histological analysis; type: functional, organism-based; design: dose 150 mg/kg
[8] = system: Mus musculus; assay: Decrease in dextran sulfate sodium-induced edema in mouse at 150 mg/kg, ip administered daily for 10 days by histological analysis; type: functional, organism-based; design: dose 150 mg/kg
[9] = Cmax in mouse plasma at 15 mg/kg, ip; type: ADME, organism-based; design: dose 15 mg/kg, route intraperitoneal
[10] = system: Plasma; assay: Stability in mouse plasma; type: ADME, cell-free
[11] = system: Mus musculus; assay: Suppression of dextran sulfate sodium-induced colitis in mouse assessed as improved rectal bleeding index at 150 mg/kg, ip administered daily for 10 days by macroscopic analysis; type: functional, organism-based; design: dose 150 mg/kg
[12] = system: Mus musculus; assay: Reversal of dextran sulfate sodium-induced shortening of colon in mouse at 150 mg/kg, ip administered daily for 10 days by macroscopic analysis; type: functional, organism-based; design: dose 150 mg/kg
[13] = system: PBMC; assay: Inhibition of concanavalin A-induced IFN-gamma production in human PBMC cells; type: functional, cell-based
[14] = system: Mus musculus; assay: Blockade of dextran sulfate sodium-induced mTOR activation in mouse at 150 mg/kg, ip administered daily for 10 days by Western blot analysis; type: functional, organism-based; design: dose 150 mg/kg

Stability [3]: Stable
Stability [4]: Stable
Cmax [6]: 180 µM
Cmax [9]: 30 µM
Stability [10]: Stable
SMILES: CC(Cl)C(=O)Nc1ccc(C#N)nc1 (centres undefined)
inhibition [1]: Active
inhibition [2]: Active
Activity [5]: Active
Activity [7]: Active
Activity [8]: Active
Activity [11]: Active
Activity [12]: Active
Activity [13]: Dose-dependent effect
Activity [14]: Active

— ChEMBL document CHEMBL1136899, “Synthesis and therapeutic evaluation of pyridyl based novel mTOR inhibitors” (Bioorg Med Chem Lett, 2009)
